Data as given in patent publication US20250282799A1, “SUBSTITUTED PYRIDO[4,3-d]PYRIMIDINES AS KRAS MODULATORS” (Alterome Therapeutics, Inc., priority 2023, published 2025).

What was measured:
KRAS (G12V)/CRAF = KRAS (G12V)/CRAF (Homo sapiens (Human), UniProt P01116, G12V); assay: TR-FRET biochemical KRAS:CRAF protein:protein interaction assay, KRAS (G12V); type: binding; conditions: GMPPNP loaded Biotin-KRAS (G12V), FLAG CRAF RBD; read-out: TR-Fret_PPI KRAS (G12V)/CRAF IC50
Method: (§1) The effect of test compounds on KRAS and CRAF protein: protein interaction (PPI) was measured by time resolved fluorescence resonance energy transfer (TR-FRET) Ras binding domain (RBD) assay, which uses a signal generated through fluorescent resonance energy transfer between a donor and an acceptor molecule when in close proximity to each other. Interference from buffer, media, etc. is reduced by dual-wavelength detection; the energy pulse from the excitation source is followed by a time delay, which allows interfering short-lived fluorescence to decay (Degorce et al. 2009).
(§2) The KRAS: CRAF PPI assay can be utilized to identify KRAS ‘ON’ state inhibitors, as the KRAS protein is loaded with GMPPNP (a non-hydrolyzable GTP analog), which represents the active KRAS ‘ON’ state. FLAG-tagged CRAF RBD binding to the GMPPNP loaded biotin-tagged KRAS will result in a fluorescence energy transfer from the donor (Tb-anti-FLAG, emission 620 nm) to the acceptor (SA-XL665, emission 665 nm). Disruption of KRAS and CRAF binding will reduce the TR-FRET signal.
(§3) Test compound was dissolved in DMSO to create a 1 mM stock solution. A 45 μL volume of stock solution was transferred to a 384well polypropylene plate. A 3fold, 10point dilution was performed by transferring 15 μL of test compound solution into 30 μL of DMSO.
(§4) Assay buffer A was prepared with […] Hepes, pH7.3, 0.002% Tween 20, 0.1% BSA, […] NaCl, 5 mM MgCl2, and 10 uM GMP-PNP. 4× KRAS Solution was prepared with 80 nM of Biotin-KRAS (G12D/V), GMPPNP loaded or Biotin-KRAS (WT), GMPPNP loaded protein in assay buffer A. 4× Raf RBD Solution was prepared with 400 nM FLAG CRAF RBD in assay buffer A. 2× Detection Mixture was prepared with 2 nM Tb-anti-FLAG antibody and 10 nM and 10 nM SA-XL665 in assay buffer A.
(§5) A volume of 100 nL of 100× test compound working solution or DMSO vehicle control solution was dispensed to each well (duplicate for each concentration) of a 384-well ProxiPlate Plus assay plate. A volume of 2.5 μL of 4× KRAS Solution was added to each well of the assay plate for a final concentration of 20 nM Biotin-KRAS (G12D/V),GMPPNP loaded or 20 nM Biotin-KRAS (WT), GMPPNP. For low control, add 2.5 μL of assay buffer (no KRAS protein). Pre-incubate assay plate for 30 minutes at room temperature. Following pre-incubation of test compound or DMSO with Biotin-KRAS (G12D/V),GMPPNP loaded or Biotin-KRAS (WT),GMPPNP, a volume of 2.5 μL of 4× FLAG cRAF RBD Solution was added to each well of the assay plate for a final concentration of 100 nM FLAG CRAF RBD. The assay plate was subjected to centrifuge at 1000 rpm for 1 minute and pre-incubate assay plate for 150 minutes at room temperature. Following the pre-incubation with FLAG cRAF RBD, a volume of 5 μl of 2× Detection Mixture was added to each well of the assay plate for a final concentration of 1 nM Tb-anti-FLAG and 5 nM SA-XL665. The assay plate was centrifuged at 1000 rpm for 1 minute and incubated for 90 minutes at room temperature. TR-FRET signal was measured on a BioTek Synergy Neo2 microplate reader (excitation at 340 nm, emission at 665 nn and 620 nm).
(§6) TR-FRET ratios were calculated by dividing the acceptor emission value (665 nm) by the donor emission value (620 nm) for each sample.
(§7) Percent inhibition was calculated by multiplying the normalized TR-FRET ratio by 100, where TR-FRET ratio^HIGH was the TR-FRET ratio obtained from wells with 1% DMSO and complete reaction mixture, TR-FRET ratio^LOW was the ratio obtained from wells with 1% DMSO and reaction mixture without KRAS protein and TR-FRET ratio^SAMPLE was the TR-FRET ratio from wells with test compound and complete reaction mixture. The IC50 values were calculated from normalized TR-FRET ratios with the Levenberg-Marquardt 4 parameter fitting procedure.
(§8) This assay quantifies the interaction of a KRAS mutant protein (e.g., G12V) with the CRAF Ras-binding domain (RBD). […]

KRAS (G12D)/CRAF = KRAS (G12D)/CRAF (Homo sapiens (Human), UniProt P01116, G12D); assay: TR-FRET biochemical KRAS:CRAF protein:protein interaction assay, KRAS (G12D); type: binding; conditions: GMPPNP loaded Biotin-KRAS (G12D), FLAG CRAF RBD; read-out: TR-Fret_PPI KRAS (G12D)/CRAF IC50
Chain of KRAS (G12D)/CRAF (P01116-2 other isoform, or with tags, fused parts or gaps G12D): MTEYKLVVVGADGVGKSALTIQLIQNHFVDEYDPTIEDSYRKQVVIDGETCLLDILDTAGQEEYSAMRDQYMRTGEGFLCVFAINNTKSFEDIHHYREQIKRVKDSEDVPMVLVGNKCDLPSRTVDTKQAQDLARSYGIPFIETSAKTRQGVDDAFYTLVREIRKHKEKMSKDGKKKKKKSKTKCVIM
Method: as §1, §2, §3, §4, §5, §6, §7, §8

[1] = test system: KRAS G12V dependent lung adenocarcinoma cell line, NCI-H441; assay: Cellular pERK (Thr202/Tyr204) FRET/HTRF assay; type: cell-based; conditions: Homo sapiens, NCI-H441, cellular pERK (Thr202/Tyr204) HTRF, NCI-H441 cells
In short: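 Phospho-ERK1/2 (Thr202/Tyr204) quantified by two-antibody HTRF in lysed NCI-H441 cells. Cells seeded overnight, treated with test compounds for 1 hr at 37 °C against DMSO control, then lysed and detected at room temperature; IC50 obtained by curve fitting.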

Chain of KRAS (G12V)/CRAF (P01116-2 other isoform, or with tags, fused parts or gaps G12V): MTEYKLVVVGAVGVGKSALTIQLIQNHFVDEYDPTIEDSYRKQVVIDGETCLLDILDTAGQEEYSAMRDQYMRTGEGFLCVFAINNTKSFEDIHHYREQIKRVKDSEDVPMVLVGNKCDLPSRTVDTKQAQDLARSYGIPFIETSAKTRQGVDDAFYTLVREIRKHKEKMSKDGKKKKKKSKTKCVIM

SMILES	IC50 (KRAS (G12V)/CRAF) [nM]	IC50 (KRAS (G12D)/CRAF) [nM]	IC50 [1] [nM]
[2H]C([2H])(Oc1nc(N2CCOC[C@H]3[C@H](F)[C@H]32)c2c(OC)nc(-c3cc(N)cc4ccc(F)c(C#C)c34)c(F)c2n1)[C@@]12CCCN1C[C@H](F)C2 [Example 222, 5-Ethynyl-6-fluoro-4-(8-fluoro-4-((1S,7S,8S)-8-fluoro-5-oxa-2-azabicyclo[5.1.0]octan-2-yl)-2-(((2R,7aS)-2-fluorotetrahydro-1H-pyrrolizin-7a(5H)-yl)methoxy-d2)-5-methoxypyrido[4,3-d]pyrimidin-7-yl)naphthalen-2-amine]	53.7	11.7	< 50
[2H]C([2H])(Oc1nc(N2CCOC[C@@H]3[C@@H](F)[C@@H]32)c2c(OC)nc(-c3cc(N)cc4ccc(F)c(C#C)c34)c(F)c2n1)[C@@]12CCCN1C[C@H](F)C2 [Example 223, 5-ethynyl-6-fluoro-4-(8-fluoro-4-((1R,7R,8R)-8-fluoro-5-oxa-2-azabicyclo[5.1.0]octan-2-yl)-2-(((2R,7aS)-2-fluorotetrahydro-1H-pyrrolizin-7a(5H)-yl)methoxy-d2)-5-methoxypyrido[4,3-d]pyrimidin-7-yl)naphthalen-2-amine]	3000	3000	500 to 10000
[2H]C([2H])(Oc1nc(N2CCOC[C@@H]3[C@H](F)[C@@H]32)c2cnc(-c3cc(N)cc4ccc(F)c(C#C)c34)c(F)c2n1)[C@@]12CCCN1C[C@H](F)C2 [Example 224, 5-ethynyl-6-fluoro-4-(8-fluoro-4-((1R,7R,8S)-8-fluoro-5-oxa-2-azabicyclo[5.1.0]octan-2-yl)-2-(((2R,7aS)-2-fluorotetrahydro-1H-pyrrolizin-7a(5H)-yl)methoxy-d2)pyrido[4,3-d]pyrimidin-7-yl)naphthalen-2-amine]	> 3000	> 3000	500 to 10000
[2H]C([2H])(Oc1nc(N2CCOC[C@H]3[C@@H](F)[C@H]32)c2cnc(-c3cc(N)cc4ccc(F)c(C#C)c34)c(F)c2n1)[C@@]12CCCN1C[C@H](F)C2 [Example 225, 5-ethynyl-6-fluoro-4-(8-fluoro-4-((1S,7S,8R)-8-fluoro-5-oxa-2-azabicyclo[5.1.0]octan-2-yl)-2-(((2R,7aS)-2-fluorotetrahydro-1H-pyrrolizin-7a(5H)-yl)methoxy-d2)pyrido[4,3-d]pyrimidin-7-yl)naphthalen-2-amine]	2910	264	< 50
[2H]C([2H])(Oc1nc(N2CCOC[C@H]3[C@@H](Cl)[C@H]32)c2cnc(-c3cc(N)cc4ccc(F)c(C#C)c34)c(F)c2n1)[C@@]12CCCN1C[C@H](F)C2 [Example 247, 4-(4-((1S,7S,8R)-8-chloro-5-oxa-2-azabicyclo[5.1.0]octan-2-yl)-8-fluoro-2-(((2R,7aS)-2-fluorotetrahydro-1H-pyrrolizin-7a(5H)-yl)methoxy-d2)pyrido[4,3-d]pyrimidin-7-yl)-5-ethynyl-6-fluoronaphthalen-2-amine]	3000	1390	50 to 500
[2H]C([2H])(Oc1nc(N2CCOC[C@H]3[C@H](Cl)[C@H]32)c2cnc(-c3cc(N)cc4ccc(F)c(C#C)c34)c(F)c2n1)[C@@]12CCCN1C[C@H](F)C2 [Example 248, 4-(4-((1S,7S,8S)-8-Chloro-5-oxa-2-azabicyclo[5.1.0]octan-2-yl)-8-fluoro-2-(((2R,7aS)-2-fluorotetrahydro-1H-pyrrolizin-7a(5H)-yl)methoxy-d2)pyrido[4,3-d]pyrimidin-7-yl)-5-ethynyl-6-fluoronaphthalen-2-amine]	52.6	8.25	< 50
[2H]C([2H])(Oc1nc(N2CCOC[C@@H]3[C@@H](Cl)[C@@H]32)c2cnc(-c3cc(N)cc4ccc(F)c(C#C)c34)c(F)c2n1)[C@@]12CCCN1C[C@H](F)C2 [Example 249, 4-(4-((1R,7R,8R)-8-chloro-5-oxa-2-azabicyclo[5.1.0]octan-2-yl)-8-fluoro-2-(((2R,7aS)-2-fluorotetrahydro-1H-pyrrolizin-7a(5H)-yl)methoxy-d2)pyrido[4,3-d]pyrimidin-7-yl)-5-ethynyl-6-fluoronaphthalen-2-amine]	3000	648	< 50
[2H]C([2H])(Oc1nc(N2CCOC[C@@H]3[C@H](Cl)[C@@H]32)c2cnc(-c3cc(N)cc4ccc(F)c(C#C)c34)c(F)c2n1)[C@@]12CCCN1C[C@H](F)C2 [Example 250, 4-(4-((1R,7R,8S)-8-chloro-5-oxa-2-azabicyclo[5.1.0]octan-2-yl)-8-fluoro-2-(((2R,7aS)-2-fluorotetrahydro-1H-pyrrolizin-7a(5H)-yl)methoxy-d2)pyrido[4,3-d]pyrimidin-7-yl)-5-ethynyl-6-fluoronaphthalen-2-amine]	3000	1670	50 to 500
[2H]C([2H])(Oc1nc(N2CCCO[C@H]3[C@H](Cl)[C@H]32)c2cnc(-c3cc(N)cc4ccc(F)c(C#C)c34)c(F)c2n1)[C@@]12CCCN1C[C@H](F)C2 [Example 316, 4-(4-((1R,7S,8R)-8-Chloro-2-oxa-6-azabicyclo[5.1.0]octan-6-yl)-8-fluoro-2-(((2R,7aS)-2-fluorotetrahydro-1H-pyrrolizin-7a(5H)-yl)methoxy-d2)pyrido[4,3-d]pyrimidin-7-yl)-5-ethynyl-6-fluoronaphthalen-2-amine]	51.2	14.1	< 50
[2H]C([2H])(Oc1nc(N2CCCO[C@@H]3[C@@H](Cl)[C@@H]32)c2cnc(-c3cc(N)cc4ccc(F)c(C#C)c34)c(F)c2n1)[C@@]12CCCN1C[C@H](F)C2 [Example 317, 4-(4-((1S,7R,8S)-8-chloro-2-oxa-6-azabicyclo[5.1.0]octan-6-yl)-8-fluoro-2-(((2R,7aS)-2-fluorotetrahydro-1H-pyrrolizin-7a(5H)-yl)methoxy-d2)pyrido[4,3-d]pyrimidin-7-yl)-5-ethynyl-6-fluoronaphthalen-2-amine]	3000	3000	50 to 500
[2H]C([2H])(Oc1nc(N2CCOC[C@@H]3[C@@H](Cl)[C@@H]32)c2cnc(-c3cc(N)cc4ccc(F)c(C#C)c34)c(F)c2n1)[C@@]12CCCN1[C@H](C)[C@H](F)C2 [Example 339, 4-(4-((1R,7R,8R)-8-chloro-5-oxa-2-azabicyclo[5.1.0]octan-2-yl)-8-fluoro-2-(((2R,3R,7aS)-2-fluoro-3-methyltetrahydro-1H-pyrrolizin-7a(5H)-yl)methoxy-d2)pyrido[4,3-d]pyrimidin-7-yl)-5-ethynyl-6-fluoronaphthalen-2-amine]	≥ 10000	3000	500 to 10000
